Here are results for six molecules from patent publication US20220154192A1, “SYSTEM AND METHOD FOR LIGHT-REGULATED OLIGOMERIZATION AND PHASE SEPARATION OF FOLDED DOMAINS AND RNA GRANULE-ASSOCIATED PROTEIN DOMAINS FOR DRUG- BASED SCREENING APPLICATIONS” (The Trustees of Princeton University, priority 2019, published 2022).

The subject of data set [1] is G3BP KO cells. Briefly: Lethality of drug treatment in cultured cells (qualitative observation). The settings on record: arsenite 400 μM; Actinomycin D 5 μg/mL.
Description: (§1) Cell treatment with arsenite to dissociate polysomes Cells were treated by adding sodium arsenite to cell media at a concentration of 400 μM, which is in excess of saturating concentrations for polysome disassembly (Kedersha et al., 2016). […] Inhibition of polysome disassembly by pre-treating with cycloheximide was added to a final concentration of 100 μg/mL (G3BP KO cells expressing indicated fluorescent fusion proteins). Following 30-minutes of incubation, arsenite was added at a concentration of 400 μM. 1-hour later, cells were assessed for formation of stress granules (GFP-G3BP rescue) or activation cycles were performed (Corelets).
Actinomycin D dissolved in DMSO was used to treat G3BP KO cells expressing indicated Corelets at a concentration of 5 μg/mL. Images were taken 12-18 hours after actinomycin D treatment, a time interval during which nucleoli were no longer apparent by bright field observation and the vast majority of mRNA was expected to be degraded. Final concentration of DMSO was 0.5%. For Actinomycin D plus arsenite experiments, arsenite was added at a concentration of 400 μM˜12 hours following actinomycin D treatment and cells were imaged 1-2 hours subsequently.
The test system of data set [2] is CAPRIN1 RGG Corelets. Put plainly: CAPRIN1 RGG (RBD) Corelet phase separation after RNA depletion. It is filed as cell-based, human. Conditions: RNA depletion by Actinomycin D. From the text:
High valence G3BP RBD nodes (but not dimeric bridges) are sufficient to induce stress granule formation following polysome disassembly, but it is unclear whether this is a unique feature of G3BP or common to RNA-binding nodes that interact with G3BP NTF2. We reasoned that if such NTF2-associated RBPs contribute essential, additive RNA-binding valence to the multi-protein complex, synthetic high valence nodes connected to individual RBDs would nucleate opto-SGs in isolation (i.e. mimic G3BP RBD Corelets). To test this, the RBDs of CAPRIN1 and UBAP2L were oligomerized utilizing the Corelet system, and mapped phase diagrams in both non-treated and arsenite-exposed cells. […] Further, condensate protein composition, P-body attachment, and relative phase thresholds are not determined by the type or number of RNA-binding motifs. […]
In order to determine precise phase threshold boundaries for intracellular phase diagrams, analyzed cells must feature high variability with respect to sspB-mCherry and iLID-mGFP stoichiometries to sample sufficient core concentrations and valencies. […] In this protocol, rows varied from 2 to 60 μL iLID-GFP-Fe lentivirus; columns, 2 to 60 μL mCherry-sspB-open reading frame (ORF)/ORF-mCherry-sspB lentivirus. […]

The subject of data set [3] is opto-SGs (optogenetic stress granules) of G3BP ΔNTF2 Corelets in U2OS cells. Briefly: G3BP ΔNTF2 Corelet opto-SG intracellular phase diagram. It is filed as cell-based, human.
Excerpt: To quantitatively interrogate the relationship between RBD valence and the threshold protein complex concentration for stress granule formation, the Corelet system described previously (the cores are comprised of a 24-mer ferritin complex coated by iLID molecules, which serves as an oligomerization platform mediated by blue light-stimulated sspB-iLID interactions, where the sspB-iLID is fused to the IDR regions and RBDs of G3BP) can be utilized to quantitatively map valence and concentration-dependent phase diagrams.
Pre-activation and post-activation images of G3BP KO cells stably expressing the indicated fusion proteins were captured with the mCherry (560) channel only to visualize the sspB component without triggering light-induced dimerization with the iLID-mGFP tagged Ferritin core. Cells were activated with a 488-laser using 1% laser power to cause dimerization of iLID and sspB. Activation of cells was achieved by imaging the mCherry and mGFP channels simultaneously using a 6-second frame interval for an area of 120×120 μm2 (1024×1024 pixels) at Nyquist zoom.
as §1
Actinomycin D dissolved in DMSO was used to treat G3BP KO cells expressing indicated Corelets at a concentration of 5 μg/mL. Images were taken 12-18 hours after actinomycin D treatment, a time interval during which nucleoli were no longer apparent by bright field observation and the vast majority of mRNA was expected to be degraded. Final concentration of DMSO was 0.5%. For Actinomycin D plus arsenite experiments, arsenite was added at a concentration of 400 μM˜12 hours following actinomycin D treatment and cells were imaged 1-2 hours subsequently. […] Time point was chosen to maximize the time since treatment (i.e. to reduce RNA cells by as much as possible) without extensive lethality from the drug.
In order to determine precise phase threshold boundaries for intracellular phase diagrams, analyzed cells must feature high variability with respect to sspB-mCherry and iLID-mGFP stoichiometries to sample sufficient core concentrations and valencies. In order to achieve a broad concentration range for both components, G3BP KO cells were transduced in 96-well plates (Cellvis) using an arrayed lentivirus approach. In this protocol, rows varied from 2 to 60 μL iLID-GFP-Fe lentivirus; columns, 2 to 60 μL mCherry-sspB-open reading frame (ORF)/ORF-mCherry-sspB lentivirus. G3BP KO cells were plated directly into the arrayed lentivirus to attain ˜25% confluency upon subsequent attachment to the plastic substrate.
In data set [4] the test system is stress granule formation in G3BP KO U2OS cells. Put plainly: G3BP rescue / rescue competition of stress granule formation in G3BP KO U2OS cells. It is filed as cell-based, human. Conditions: for rescue of stress granule formation in G3BP KO cells: expressed protein in G3BP KO cells. The protocol:
For G3BP rescue competition experiments, an identical arrayed lentivirus approach was used as described in Phase diagram data collection (i.e. 2-60 μL G3BPmCherry and 2-60 μL mGFP-ORF, arrayed 4-wells by 4-wells for 16-wells total of a 96-well plate). G3BP KO cells were plated into lentivirus then combined and passaged 72-hours later.
Live cell confocal microscopy was performed on Day 5 post-transduction. For each condition (GFP-tagged protein of interest), 4 separate experiments (each experiment=1-well/arsenite treatment) were performed on three separate days with numerous technical replicates (fields of view). Live confocal imaging was performed 1-2 hours following arsenite treatment. mCherry and mGFP concentrations were determined similarly as for phase diagrams and manual scoring of stress granule absence or presence was performed. Similar protocols were used to assess rescue in the absence of competition.
The concentration of each cell was determined via manual image segmentation as previously described and absence or presence of stress granules was annotated. To determine a boundary from the data, a support vector machine (SVM) trained using the concentrations of the two components as explanatory variables and the categorical stress granule state as a response variable by applying the fitcsvm( ) function in the MATLAB Statistics and Machine Learning package using the default solver. Briefly, a support vector machine constructs a linear decision surface based on boundary points (‘support vectors’), with the assumption that the data is linearly separable. […]
For each experiment, the concentration of the protein of interest was determined for each cell, and the presence of stress granules was categorized. […] Specifically, the probability density was calculated by binning the concentration distribution using a square root number rule. Within each bin, the probability of having stress granules was calculated as the number of cells with stress granules over the total number of cells in that bin. […]

Data set [5] deals with stress granules. Briefly: Arsenite-induced stress granule formation time course. The class given is cell-based, human. The settings on record: arsenite 400 μM.
Description: as §1

“Also recorded” adds a separate entry of the source. *1 amine or outer side, *2 acyl side, *3 side chain or, on linkers, in order; H or OH if unused. Where a SMILES comes first, the peptide text is derived from it. Bridges are numbered along the chain shown (N, C = ends). Roman numbers before positions name the chains, in order. [ ]: non-standard residue; d: D form. Actinocin(9to1) = Cc1c2oc3c(C)ccc(C(=O)[*:1])c3nc-2c(C(=O)[*:2])c(N)c1=O; NMeV = CN[C@H](C(=O)O)C(C)C; Sar = CNCC(=O)O Some results are limits rather than exact numbers.

Consider `Cc1c2oc3c(C)ccc(C(=O)N[C@@H]4C(=O)N[C@H](C(C)C)C(=O)N5CCC[C@H]5C(=O)N(C)CC(=O)N(C)[C@@H](C(C)C)C(=O)O[C@@H]4C)c3nc-2c(C(=O)N[C@@H]2C(=O)N[C@H](C(C)C)C(=O)N3CCC[C@H]3C(=O)N(C)CC(=O)N(C)[C@@H](C(C)C)C(=O)O[C@@H]2C)c(N)c1=O` [Actinomycin D] (I: T[dV]P[Sar][NMeV] / II: T[dV]P[Sar][NMeV]; ester I:1-I:C, II:1-II:C; linker I:N-II:N via Actinocin(9to1)), for which the “time after treatment at which cells began to die / treatment was lethal” value in data set [1] is 30 to 36 h. In addition, in data set [2], the “phase separation of CAPRIN1 RGG Corelets” value is “abrogates phase separation”. Besides, the “formation of opto-SGs” value in data set [3] (Actinomycin D 5 μg/mL, 12-18 hours, FIG. 15D) is given as “prevents the formation of opto-SGs; also recorded: disrupts the formation of SGs”.

With “G3BP F33W: G3BP variant unable to bind USP10 or CAPRIN1”, the “rescue of stress granule formation in G3BP KO cells” value in data set [4] is “rescues SG formation”.

As to “G3BP: stress granule nucleating protein, fluorescently tagged, expressed in G3BP KO cells”, the EC50 in data set [4] (G3BP KO U2OS cells, arsenite, read-out: G3BP concentration for rescue of stress granule formation) is 620 nM.

As to `C[C@@H]1C[C@@H]([C@H](O)CC2CC(=O)NC(=O)C2)C(=O)[C@@H](C)C1` [cycloheximide], in data set [3] (arsenite and cycloheximide, FIG. 15C vs FIG. 15A), the “calculated best-fit phase threshold” value is listed as “almost identical to that of nontreated cells”. In addition, the “arsenite-driven shift in the opto-SG phase diagram” value in data set [3] (pre-treatment with cycloheximide 100 μg/mL 30 min, then arsenite 400 μM) is given as “negated”.

As for `O=[As]O` [arsenite, sodium arsenite], the “time after treatment at which cells began to die / treatment was lethal” value in data set [1] is around 6 h. Moreover, in data set [5], the “time by which SG number/size peaked” value is at most 45 min. For the same molecule, the “valence required to drive condensation” value in data set [3] (at 0.15 μM Core, arsenite 400 μM, non-stressed cells need valence ~24) is reported as around 8.

B1: CAPRIN1: NTF2-interacting RNA-binding stress granule protein (protein, UniProt Q14444 2-709, looked up)
Caprin-1: PSATSHSGSGSKSSGPPPPSGSSGSEAAAGAGAAAPASQHPATGTGAVQTEAMKQILGVIDKKLRNLEKKKGKLDDYQERMNKGERLNQDQLDAVSKYQEVTNNLEFAKELQRSFMALSQDIQKTIKKTARREQLMREEAEQKRLKTVLELQYVLDKLGDDEVRTDLKQGLNGVPILSEEELSLLDEFYKLVDPERDMSLRLNEQYEHASIHLWDLLEGKEKPVCGTTYKVLKEIVERVFQSNYFDSTHNHQNGLCEEEEAASAPAVEDQVPEAEPEPAEEYTEQSEVESTEYVNRQFMAETQFTSGEKEQVDEWTVETVEVVNSLQQQPQAASPSVPEPHSLTPVAQADPLVRRQRVQDLMAQMQGPYNFIQDSMLDFENQTLDPAIVSAQPMNPTQNMDMPQLVCPPVHSESRLAQPNQVPVQPEATQVPLVSSTSEGYTASQPLYQPSHATEQRPQKEPIDQIQATISLNTDQTTASSSLPAASQPQVFQAGTSKPLHSSGINVNAAPFQSMQTVFNMNAPVPPVNEPETLKQQNQYQASYNQSFSSQPHQVEQTELQQEQLQTVVGTYHGSPDQSHQVTGNHQQPPQQNTGFPRSNQPYYNSRGVSRGGSRGARGLMNGYRGPANGFRGGYDGYRPSFSNTPNSGYTQSQFSAPRDYSGYQRDGYQQNFKRGSGQSGPRGAPRGRGGPPRPNRGMPQMNTQQVN
With B1, the “rescue of stress granule formation in G3BP KO cells” value in data set [4] is “does not rescue”.
